Source: patent publication US20170304388A1, “NEW INDICATION OF CARDIOVASCULAR DRUGS FOR PREPARATION OF CANCER INHIBITION PHARMACEUTICAL COMPOSITION” (LAUNX BIOMEDICAL CO., LTD., priority 2014, published 2017)

Key:
Format in all cases: cell-based
TOV-21G = assay: Cell viability analysis (WST-1), TOV-21G; conditions: Table 4, repeated experiments, drug 10 μM
Experimental: (§1) Subculture the different types of cancer cells. The cancer cells includes lung cancer, gastric cancer, hepatic cancer, colon cancer, skin cancer, cervical cancer, prostate cancer, bladder cancer, breast cancer, leukemia, pancreatic cancer, ovarian cancer, tongue cancer, osteosarcoma, and renal cancer. The cell numbers were counted and reseed as 2×10^6 in cell culture plate/flask. Then, the culture medium for culturing the cell lines was added to a volume of 10 ml, and the cells were cultured for 2-3 days. Then, the cells were suspended for loading into 96-well plates. The cell number was 3000 cells and the volume of the culture medium was 100 ul each well.
(§2) Removing the original culture medium from 96-well plate. Then add 100 μl of commercially drug at a concentration of 10 μM per well. After 72 hours, add the diluted WST-1 reagent to the well with 100 μl/well, and the diluted WST-1 reagent was acquired from the dilution of 9:1 medium and WST-1 stock reagent. Finally, the total volume of each well are 200 μl/well. Culture the 96-well plate at 37° C. for 30 to 90 minutes. Detecting and calculating the survival rate of each cancer cells with an ELISA reader at OD450 nm. The lower viability of cancer cells represents better inhibition effect via the drugs. Otherwise, the higher viability of cancer cells represents worse inhibition effect via the drugs.
(§3) According to the above mentioned cardiovascular drugs for cancer growth inhibition in Table 3, the inventors took the repeat experiments for the cardiovascular drugs to check the growth inhibitory effects of cancer cells by the cardiovascular drugs. […] 4.

SAS = assay: Cell viability analysis (WST-1), SAS; conditions: Table 4, repeated experiments, drug 10 μM
Experimental: as §1, §2, §3

[1] = system: AGS (Gastric Adenocarcinoma); assay: Cell viability analysis (WST-1), AGS; conditions: Table 4, repeated experiments, drug 10 μM
BxPC-3 = assay: Cell viability analysis (WST-1), BxPC-3; conditions: Table 4, repeated experiments, drug 10 μM
Experimental: as §1, §2, §3

MDA-MB231 = assay: Cell viability analysis (WST-1), MDA-MB231; conditions: Table 4, repeated experiments, drug 10 μM
[2] = system: H1650 (Lung Adenocarcinoma); assay: Cell viability analysis (WST-1), H1650; conditions: Table 4, repeated experiments, drug 10 μM
Hep3B = assay: Cell viability analysis (WST-1), Hep3B; conditions: Table 4, repeated experiments, drug 10 μM
Experimental: as §1, §2, §3

[3] = system: A549 (Lung Adenocarcinoma); assay: Cell viability analysis (WST-1), A549; conditions: Table 4, repeated experiments, drug 10 μM
[4] = system: MCF7 (Mammary Gland, Adenocarcinoma); assay: Cell viability analysis (WST-1), MCF7; conditions: Table 4, repeated experiments, drug 10 μM
[5] = system: LoVo (Colorectal Adenocarcinoma); assay: Cell viability analysis (WST-1), LoVo; conditions: Table 4, repeated experiments, drug 10 μM
[6] = system: HepG2 (Hepatocellular Carcinoma); assay: Cell viability analysis (WST-1), HepG2; conditions: Table 4, repeated experiments, drug 10 μM
[7] = system: PC3 (Prostate Adenocarcinoma); assay: Cell viability analysis (WST-1), PC3; conditions: Table 4, repeated experiments, drug 10 μM
[8] = system: MKN-45 (Gastric Adenocarcinoma); assay: Cell viability analysis (WST-1), MKN-45; conditions: Table 4, repeated experiments, drug 10 μM
T24 = assay: Cell viability analysis (WST-1), T24; conditions: Table 4, repeated experiments, drug 10 μM
Experimental: as §1, §2, §3

786-O = assay: Cell viability analysis (WST-1), 786-O; conditions: Table 4, repeated experiments, drug 10 μM
Experimental: as §1, §2, §3

[9] = system: TSGH-8301 (Urinary Bladder Carcinoma); assay: Cell viability analysis (WST-1), TSGH-8301; conditions: Table 4, repeated experiments, drug 10 μM
[10] = system: A375 (Amelanotic Melanoma); assay: Cell viability analysis (WST-1), A375; conditions: Table 4, repeated experiments, drug 10 μM
cancer cell lines = assay: Growth inhibitory effects on the panel of cancer cell lines; conditions: drug 10 μM, 72 hours, WST-1
AsPC-1 = assay: Cell viability analysis (WST-1), AsPC-1; conditions: Table 4, repeated experiments, drug 10 μM
Experimental: as §1, §2, §3

U2OS = assay: Cell viability analysis (WST-1), U2OS; conditions: Table 4, repeated experiments, drug 10 μM
Experimental: as §1, §2, §3

BCC = assay: Cell viability analysis (WST-1), BCC; conditions: Table 4, repeated experiments, drug 10 μM
[11] = system: HCT116 (Colorectal Carcinoma); assay: Cell viability analysis (WST-1), HCT116; conditions: Table 4, repeated experiments, drug 10 μM
[12] = system: HeLa (Cervix Adenocarcinoma); assay: Cell viability analysis (WST-1), HeLa; conditions: Table 4, repeated experiments, drug 10 μM
C-33A = assay: Cell viability analysis (WST-1), C-33A; conditions: Table 4, repeated experiments, drug 10 μM
Experimental: as §1, §2, §3

NIH-OVCAR-3 = assay: Cell viability analysis (WST-1), NIH-OVCAR-3; conditions: Table 4, repeated experiments, drug 10 μM
Experimental: as §1, §2, §3

In the case of `CC(C)c1c(C(=O)Nc2ccccc2)c(-c2ccccc2)c(-c2ccc(F)cc2)n1CC[C@@H](O)C[C@@H](O)CC(=O)[O-].CC(C)c1c(C(=O)Nc2ccccc2)c(-c2ccccc2)c(-c2ccc(F)cc2)n1CC[C@@H](O)C[C@@H](O)CC(=O)[O-].[Ca+2]` [Atorvastatin calcium (Lipitor), Atorvastatin calcium], the “survival rate (viability) of cancer cells, TOV-21G” value (TOV-21G; 72 hours) is reported as 34.04, the “survival rate (viability) of cancer cells, SAS” value (SAS; 72 hours) is reported as 76.29 and the “survival rate (viability) of cancer cells, AGS” value ([1]; 72 hours, WST-1) is reported as 31.48. The “survival rate (viability) of cancer cells, BxPC-3” value (BxPC-3; 72 hours) was 81.03, the “survival rate (viability) of cancer cells, MDA-MB231” value (MDA-MB231; 72 hours) was 47.84 and the “survival rate (viability) of cancer cells, H1650” value ([2]; 72 hours, WST-1) was 69.55. The “survival rate (viability) of cancer cells, Hep3B” value (Hep3B; 72 hours) was 91.86, the “survival rate (viability) of cancer cells, A549” value ([3]; 72 hours, WST-1) was 90.1462 and the “survival rate (viability) of cancer cells, MCF-7” value ([4]; 72 hours, WST-1) was 79.08. The “survival rate (viability) of cancer cells, LoVo” value ([5]; 72 hours, WST-1) was 103.0307, the “survival rate (viability) of cancer cells, HepG2” value ([6]; 72 hours, WST-1) was 95.92 and the “survival rate (viability) of cancer cells, PC-3” value ([7]; 72 hours, WST-1) was 56.4832. For the same molecule, the “survival rate (viability) of cancer cells, MKN-45” value ([8]; 72 hours, WST-1) was 84.18, the “survival rate (viability) of cancer cells, T24” value (T24; 72 hours) was 78.47 and the “survival rate (viability) of cancer cells, 786-O” value (786-O; 72 hours) was 32.54. The “survival rate (viability) of cancer cells, TSGH-8301” value ([9]; 72 hours, WST-1) was 70.59, the “survival rate (viability) of cancer cells, A375” value ([10]; 72 hours, WST-1) was 23.01 and the “inhibition effect on different cancer cell lines (in words)” value (cancer cell lines) was “significant inhibition effect”. For the same molecule, the “survival rate (viability) of cancer cells, AsPC-1” value (AsPC-1; 72 hours) was 81.1, the “survival rate (viability) of cancer cells, U2OS” value (U2OS; 72 hours) was 86.25 and the “survival rate (viability) of cancer cells, BCC” value (BCC; 72 hours) was 41.49. For the same molecule, the “survival rate (viability) of cancer cells, HCT116” value ([11]; 72 hours, WST-1) was 82.55, the “survival rate (viability) of cancer cells, HeLa” value ([12]; 72 hours, WST-1) was 78.64 and the “survival rate (viability) of cancer cells, C-33A” value (C-33A; 72 hours) was 96.95. For the same molecule, the “survival rate (viability) of cancer cells, NIH-OVCAR-3” value (NIH-OVCAR-3; 72 hours) was 98.3.
`CC(C)n1c(/C=C/C(O)CC(O)CC(=O)O)c(-c2ccc(F)cc2)c2ccccc21` (stereo not shown) [Fluvastatin sodium (Lescol), Fluvastatin sodium] was tested, and the viability at 10 µM (TOV-21G; Homo sapiens, TOV21G, 72 h, read-out: survival rate (viability) of cancer cells, TOV-21G) was 50.5%, the viability at 10 µM (SAS; 72 h, read-out: survival rate (viability) of cancer cells, SAS) was 81.5% and the viability at 10 µM ([1]; 72 h, WST-1, read-out: survival rate (viability) of cancer cells, AGS) was 52%. For the same molecule, the viability at 10 µM (BxPC-3; Homo sapiens, BXPC-3, 72 h, read-out: survival rate (viability) of cancer cells, BxPC-3) was 79.1%, the viability at 10 µM (MDA-MB231; Homo sapiens, MDA-MB-231, 72 h, read-out: survival rate (viability) of cancer cells, MDA-MB231) was 43% and the viability at 10 µM ([2]; Homo sapiens, NCI-H1650, 72 h, WST-1, read-out: survival rate (viability) of cancer cells, H1650) was 73.1%. For the same molecule, the viability at 10 µM (Hep3B; Homo sapiens, Hep3B, 72 h, read-out: survival rate (viability) of cancer cells, Hep3B) was 109%, the viability at 10 µM ([3]; Homo sapiens, A549, 72 h, WST-1, read-out: survival rate (viability) of cancer cells, A549) was 98.8% and the viability at 10 µM ([4]; Homo sapiens, MCF7, 72 h, WST-1, read-out: survival rate (viability) of cancer cells, MCF-7) was 82.5%. It also gave a viability at 10 µM ([5]; Homo sapiens, LoVo, 72 h, WST-1, read-out: survival rate (viability) of cancer cells, LoVo) of 100%, a viability at 10 µM ([6]; Homo sapiens, HepG2, 72 h, WST-1, read-out: survival rate (viability) of cancer cells, HepG2) of 104% and a viability at 10 µM ([7]; 72 h, WST-1, read-out: survival rate (viability) of cancer cells, PC-3) of 32.1%. The viability at 10 µM ([8]; Homo sapiens, MKN-45, 72 h, WST-1, read-out: survival rate (viability) of cancer cells, MKN-45) was 65.3%, the viability at 10 µM (T24; Homo sapiens, T-24, 72 h, read-out: survival rate (viability) of cancer cells, T24) was 71.8% and the viability at 10 µM (786-O; Homo sapiens, 786-0, 72 h, read-out: survival rate (viability) of cancer cells, 786-O) was 23.6%. It also gave a viability at 10 µM ([9]; 72 h, WST-1, read-out: survival rate (viability) of cancer cells, TSGH-8301) of 78.2%, a viability at 10 µM ([10]; Homo sapiens, A-375, 72 h, WST-1, read-out: survival rate (viability) of cancer cells, A375) of 21.8% and a viability at 10 µM (AsPC-1; Homo sapiens, ASPC1, 72 h, read-out: survival rate (viability) of cancer cells, AsPC-1) of 83.6%. The viability at 10 µM (U2OS; Homo sapiens, U2OS, 72 h, read-out: survival rate (viability) of cancer cells, U2OS) was 91.2%, the viability at 10 µM (BCC; BCC, 72 h, read-out: survival rate (viability) of cancer cells, BCC) was 27% and the viability at 10 µM ([11]; Homo sapiens, HCT-116, 72 h, WST-1, read-out: survival rate (viability) of cancer cells, HCT116) was 55%. The viability at 10 µM ([12]; Homo sapiens, HeLa, 72 h, WST-1, read-out: survival rate (viability) of cancer cells, HeLa) was 54.3%, the viability at 10 µM (C-33A; Homo sapiens, C-33-A, 72 h, read-out: survival rate (viability) of cancer cells, C-33A) was 89.5% and the viability at 10 µM (NIH-OVCAR-3; Homo sapiens, OVCAR-3, 72 h, read-out: survival rate (viability) of cancer cells, NIH-OVCAR-3) was 84.7%.
